Laboratory results: patent US20220380347A1, “INHIBITORS OF CYSTEINE PROTEASES AND METHODS OF USE THEREOF” (Pardes Biosciences, Inc., priority 2020, published 2022)
Where two headings read alike, the source gives them in different places.

Experiments:
HCov OC43 = assay: HCoV OC43 cytopathic effect (CPE) assay, CellTiter Glo; type: cell-based, human coronavirus (HCov) OC43
[1] = molecular target: COVID-19 (nCoV-2019, SARS-CoV2) Mpro (Severe acute respiratory syndrome coronavirus 2, UniProt P0DTD1); assay: COVID-19 (nCoV-2019, SARS-CoV2) Mpro enzymatic assay; type: biochemical; settings: 25 nM Mpro, 25 μM substrate; read-out: COVID-19 Mpro IC50
229E Mpro = 229E Mpro (Human coronavirus 229E, UniProt P0C6X1); assay: 229E Mpro enzymatic assay (standard methods, SARS-CoV2 Mpro assay given as exemplary); type: biochemical, human coronavirus (HCov) 229E
Procedure, shortened: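 Run by standard methods, with the SARS-CoV-2 Mpro protocol given as the model: E. coli-expressed C-His6 protease at 25 nM and substrate at 25 μM (Km 13.5 μM). Buffer pH 7.3 with 5 mM TCEP and 0.1% BSA; % inhibition versus controls fitted to variable-slope log(inhibitor)-response for IC50.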

[2] = Betacoronavirus 1, OC43, read-out: OC43 IC50 (uM) MEDIAN, median
[3] = read-out: OC43 IC50 (uM) MEDIAN, median

229E Mpro, sequence (P0C6X1 2966-3267): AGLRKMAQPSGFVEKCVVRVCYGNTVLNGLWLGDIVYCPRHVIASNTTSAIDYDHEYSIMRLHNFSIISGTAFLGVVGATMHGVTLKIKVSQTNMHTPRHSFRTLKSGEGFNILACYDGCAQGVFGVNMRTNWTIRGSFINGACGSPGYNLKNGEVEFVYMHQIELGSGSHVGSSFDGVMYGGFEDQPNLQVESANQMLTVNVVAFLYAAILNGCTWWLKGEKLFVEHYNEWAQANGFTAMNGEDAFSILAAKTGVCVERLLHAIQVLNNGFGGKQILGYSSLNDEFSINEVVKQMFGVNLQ

N#CN1CC(=O)NCC1C(=O)N(c1ccc(S(F)(F)(F)(F)F)cc1)C(C(=O)NC1CCC(F)(F)CC1)c1cncc(F)c1 (stereo not drawn) [Compound 1160, 1-cyano-N-[2-[(4,4-difluorocyclohexyl)amino]-1-(5-fluoro-3-pyridyl)-2-oxo-ethyl]-5-oxo-N-[4-(pentafluoro-λ^6-sulfanyl)phenyl]piperazine-2-carboxamide]
IC50 (HCov OC43; [2]): < 2 µM | IC50 [1]: < 2000 nM | EC50 (229E Mpro; 229E Mpro EC50): < 2000 nM

CC1(O)C[C@H](C(=O)N(c2ccc(C(C)(C)C)cc2)C(C(=O)NC2CCCCC2)c2cccnc2)N(C#N)C1 (single isomer, unassigned) [Compound 284 Isomer 1]
IC50 (HCov OC43; read-out: OC43 IC50 (uM) MEDIAN, median, listed as 284 Isomer 1): 10 to 30 µM | IC50 [1]: 2000 to 10000 nM | EC50 (229E Mpro; read-out: 229E Mpro EC50): < 2000 nM

CO[C@@H]1C[C@H](C(=O)N(c2ccc(C(C)(C)C)cc2)C(C)(C(=O)NC2CCCCC2)c2cccnc2)N(C#N)C1 (single isomer, unassigned) [1230 Isomer 1]
IC50 (HCov OC43; [3]): > 30 µM | IC50 [1]: > 30000 nM | EC50 (229E Mpro; 229E Mpro EC50): 2000 to 10000 nM

N#CN1CC(=O)NCC1C(=O)N(c1ccc(S(F)(F)(F)(F)F)cc1)C(C(=O)NC1CCC(F)(F)CC1)c1cncc(F)c1 (single isomer, unassigned) [Compound 1160 Isomer 3, 1-cyano-N-[2-[(4,4-difluorocyclohexyl)amino]-1-(5-fluoro-3-pyridyl)-2-oxo-ethyl]-5-oxo-N-[4-(pentafluoro-λ6-sulfanyl)phenyl]piperazine-2-carboxamide]
IC50 (HCov OC43; read-out: OC43 IC50 (uM) MEDIAN, median, listed as 1160 Isomer 3): 2 to 10 µM | IC50 [1]: 2000 to 10000 nM | EC50 (229E Mpro; 229E Mpro EC50): < 2000 nM

CO[C@@H]1C[C@H](C(=O)N(c2ccc(S(F)(F)(F)(F)F)cc2)C(C(=O)NCCc2cccc(F)c2)c2cccnc2)N(C#N)C1 (single isomer, unassigned) [1197 Isomer 1]
IC50 (HCov OC43; [2]): < 2 µM | IC50 [1]: < 2000 nM | EC50 (229E Mpro; 229E Mpro EC50): < 2000 nM

CC(C)(C)c1ccc(N(C(=O)[C@H]2CCCN2C#N)C(C(=O)N2CC(=O)C2)c2cccnc2)cc1 (stereo partly drawn) [Compound 946b, (2R)—N-(4-(tert-butyl)phenyl)-1-cyano-N-(2-oxo-2-(3-oxoazetidin-1-yl)-1-(pyridin-3-yl)ethyl)pyrrolidine-2-carboxamide]
IC50 (HCov OC43; [2]): 10 to 30 µM | IC50 [1]: 10000 to 30000 nM | EC50 (229E Mpro; 229E Mpro EC50): 2000 to 10000 nM

CN(C(=O)C(c1cccnc1)N(C(=O)[C@H]1CCCN1C#N)c1ccc(C(C)(C)C)cc1)C1CCCCC1 (stereo partly drawn) [Compound 1228, (2R)—N-(4-(tert-butyl)phenyl)-1-cyano-N-(2-(cyclohexyl(methyl)amino)-2-oxo-1-(pyridin-3-yl)ethyl)pyrrolidine-2-carboxamide]
IC50 (HCov OC43; [2]): 10 to 30 µM | IC50 [1]: 2000 to 10000 nM | EC50 (229E Mpro; 229E Mpro EC50): < 2000 nM

CC(C)(C)c1ccc(N(C(=O)[C@H]2Cc3ccccc3CN2C#N)C(C(=O)NC2CCCCC2)c2cccnc2)cc1 (single isomer, unassigned) [Compound 374 Isomer 2]
IC50 (HCov OC43; read-out: OC43 IC50 (uM) MEDIAN, median, listed as 374 Isomer 2): 2 to 10 µM | IC50 [1]: < 2000 nM | EC50 (229E Mpro; 229E Mpro EC50): < 2000 nM

CC1(C)CN(C#N)[C@@H](C(=O)N(c2ccc(S(F)(F)(F)(F)F)cc2)C(C(=O)NC2CCC(F)(F)CC2)c2cncc(F)c2)CO1 (single isomer, unassigned) [1086b Isomer 2]
IC50 (HCov OC43; [3]): 2 to 10 µM | IC50 [1]: 2000 to 10000 nM | EC50 (229E Mpro; read-out: 229E Mpro EC50): < 2000 nM

CC1(C)CCN(C#N)[C@H]1C(=O)N(c1ccc(S(F)(F)(F)(F)F)cc1)C(C(=O)NC1CCC(F)(F)CC1)c1cncc(F)c1 (single isomer, unassigned) [1094 Isomer 2]
IC50 (HCov OC43; [3]): 10 to 30 µM | IC50 [1]: 10000 to 30000 nM | EC50 (229E Mpro; 229E Mpro EC50): 2000 to 10000 nM

CC1(C)CN(C#N)[C@@H](C(=O)N(c2ccc(C(C)(C)C)cc2)C(C(=O)NC2CCOCC2)c2cccnc2)CO1 (single isomer, unassigned) [1141 Isomer 4]
IC50 (HCov OC43; [3]): 10 to 30 µM | IC50 [1]: 10000 to 30000 nM | EC50 (229E Mpro; 229E Mpro EC50): < 2000 nM

CO[C@@H]1C[C@H](C(=O)N(c2ccc(S(F)(F)(F)(F)F)cc2)C(C)(C(=O)NC2CCC(F)(F)CC2)c2cnccn2)N(C#N)C1 (single isomer, unassigned) [1299 Isomer 1]
IC50 (HCov OC43; [2]): 2 to 10 µM | IC50 [1]: 2000 to 10000 nM | EC50 (229E Mpro; 229E Mpro EC50): < 2000 nM

N#CN1C[C@H](O)C[C@@H]1C(=O)N(c1ccc(S(F)(F)(F)(F)F)cc1)C(C(=O)NC1CCCCC1)c1cccnc1 (single isomer, unassigned) [Compound 791 Isomer 1]
IC50 (HCov OC43; [2]): < 2 µM | IC50 [1]: < 2000 nM | EC50 (229E Mpro; 229E Mpro EC50): < 2000 nM

CC(C)(C)c1ccc(N(C(=O)[C@H]2CCCN2C#N)C(C(=O)N2CCOCC2)c2cccnc2)cc1 (single isomer, unassigned) [Compound 959 Isomer 1]
IC50 (HCov OC43; read-out: OC43 IC50 (uM) MEDIAN, median, listed as 959 Isomer 1): 10 to 30 µM | IC50 [1]: > 30000 nM | EC50 (229E Mpro; 229E Mpro EC50): 2000 to 10000 nM

N#CN1C[C@@H]2CC[C@@H]2[C@@H]1C(=O)N(c1ccc(S(F)(F)(F)(F)F)cc1)C(C(=O)NC1CCC(F)(F)CC1)c1cncc(F)c1 (single isomer, unassigned) [1097 Isomer 2]
IC50 (HCov OC43; [3]): 2 to 10 µM | IC50 [1]: 10000 to 30000 nM | EC50 (229E Mpro; 229E Mpro EC50): 2000 to 10000 nM

CC1(O)CN(C(=O)C(c2cccnc2)N(C(=O)[C@H]2CCCN2C#N)c2ccc(C(C)(C)C)cc2)C1 (single isomer, unassigned) [955 Isomer 1]
IC50 (HCov OC43; [3]): 2 to 10 µM | IC50 [1]: 2000 to 10000 nM | EC50 (229E Mpro; 229E Mpro EC50): 2000 to 10000 nM

C[C@H](NC(=O)C(c1cnccn1)N(C(=O)c1ccco1)c1ccc(-c2ccccc2)cc1)c1ccccc1 (single isomer, unassigned) [1355 Isomer 1]
IC50 (HCov OC43; [2]): > 30 µM | IC50 [1]: < 2000 nM | EC50 (229E Mpro; 229E Mpro EC50): 2000 to 10000 nM

CC(C(=O)NC1CCC(F)(F)CC1)(c1cccnc1)N(C(=O)[C@H]1[C@@H]2C[C@@H]2CN1C#N)c1ccc(S(F)(F)(F)(F)F)cc1 (single isomer, unassigned) [Compound 1251 Isomer 2]
IC50 (HCov OC43; [3]): < 2 µM | IC50 [1]: < 2000 nM | EC50 (229E Mpro; 229E Mpro EC50): < 2000 nM

N#CC1(C(=O)N(c2ccc(S(F)(F)(F)(F)F)cc2)C(C(=O)NC2CCC(F)(F)CC2)c2cncc(F)c2)CC1 (single isomer, unassigned) [1289 Isomer 1, 1-cyano-N-[2-[(4,4-difluorocyclohexyl)amino]-1-(5-fluoro-3-pyridyl)-2-oxo-ethyl]-N-[4-(pentafluoro-λ^6-sulfanyl)phenyl]cyclopropanecarboxamide]
IC50 (HCov OC43; [2]): > 30 µM | IC50 [1]: > 30000 nM | EC50 (229E Mpro; 229E Mpro EC50): > 30000 nM

N#CN1C[C@H]2C[C@H]2[C@@H]1C(=O)N(c1ccc(S(F)(F)(F)(F)F)cc1)C(C(=O)NC1CCC(F)(F)CC1)c1cnccc1C(F)(F)F (single isomer, unassigned) [Compound 1318 Isomer 2]
IC50 (HCov OC43; [3]): < 2 µM | IC50 [1]: < 2000 nM | EC50 (229E Mpro; read-out: 229E Mpro EC50): < 2000 nM

CC(C(=O)NC1CCC(F)(F)CC1)(c1cccnc1)N(C(=O)[C@H]1C[C@@](C)(O)CN1C#N)c1ccc(S(F)(F)(F)(F)F)cc1 (single isomer, unassigned) [Compound 1077 Isomer 2]
IC50 (HCov OC43; [3]): < 2 µM | IC50 [1]: < 2000 nM | EC50 (229E Mpro; read-out: 229E Mpro EC50): < 2000 nM

N#CN1C[C@H](O)C[C@@H]1C(=O)N(c1ccc(C2CC2)c(F)c1)C(C(=O)NC1CCCCC1)c1cccnc1 (single isomer, unassigned) [Compound 767 Isomer 2]
IC50 (HCov OC43; [3]): 2 to 10 µM | IC50 [1]: 2000 to 10000 nM | EC50 (229E Mpro; read-out: 229E Mpro EC50): < 2000 nM

N#CN1C[C@H]2C[C@H]2[C@@H]1C(=O)N(c1ccc(S(F)(F)(F)(F)F)cc1)C(C(=O)NC1CCC(F)(F)CC1)c1cncc(F)c1 (single isomer, unassigned) [Compound 1095b Isomer 1]
IC50 (HCov OC43; [2]): < 2 µM | IC50 [1]: < 2000 nM | EC50 (229E Mpro; 229E Mpro EC50): < 2000 nM

CO[C@@H]1C[C@H](C(=O)N(c2ccc(S(F)(F)(F)(F)F)cc2F)C(C(=O)NC2CCC(F)(F)CC2)c2cccnc2)N(C#N)C1 (single isomer, unassigned) [1288 Isomer 2]
IC50 (HCov OC43; [3]): 2 to 10 µM | IC50 [1]: < 2000 nM | EC50 (229E Mpro; read-out: 229E Mpro EC50): < 2000 nM

CO[C@@H]1C[C@H](C(=O)N(c2ccc(S(F)(F)(F)(F)F)cc2)C(C(=O)N2CCCC3(COC3)C2)c2cccnc2)N(C#N)C1 (single isomer, unassigned) [1175 Isomer 2]
IC50 (HCov OC43; [3]): 2 to 10 µM | IC50 [1]: 10000 to 30000 nM | EC50 (229E Mpro; read-out: 229E Mpro EC50): < 2000 nM

O=C(NC1CCC(F)(F)CC1)C(c1cncc(F)c1)N(C(=O)c1cnc[nH]1)c1ccc(S(F)(F)(F)(F)F)cc1 (single isomer, unassigned) [1337 Isomer 2, N-[2-[(4,4-difluorocyclohexyl)amino]-1-(5-fluoro-3-pyridyl)-2-oxo-ethyl]-N-[4-(pentafluoro-λ6-sulfanyl)phenyl]-1H-imidazole-5-carboxamide]
IC50 (HCov OC43; [3]): > 30 µM | IC50 [1]: 10000 to 30000 nM | EC50 (229E Mpro; read-out: 229E Mpro EC50): 2000 to 10000 nM

CC(C)(C)c1ccc(N(C(=O)[C@H]2CCCN2C#N)C(C(=O)N2CC(O)C2)c2cccnc2)cc1 (stereo partly drawn) [Compound 950, (2R)—N-(4-(tert-butyl)phenyl)-1-cyano-N-(2-(3-hydroxyazetidin-1-yl)-2-oxo-1-(pyridin-3-yl)ethyl)pyrrolidine-2-carboxamide]
IC50 (HCov OC43; [2]): 10 to 30 µM | IC50 [1]: 2000 to 10000 nM | EC50 (229E Mpro; 229E Mpro EC50): 2000 to 10000 nM

CC(C)(C)c1ccc(N(C(=O)[C@H]2[C@H](F)CCN2C#N)C(C(=O)NC2CCC(F)(F)CC2)c2cncc(F)c2)cc1 (single isomer, unassigned) [1212 Isomer 2]
IC50 (HCov OC43; [3]): < 2 µM | IC50 [1]: < 2000 nM | EC50 (229E Mpro; read-out: 229E Mpro EC50): < 2000 nM

N#CN1CC(=O)NCC1C(=O)N(c1ccc(S(F)(F)(F)(F)F)cc1)C(C(=O)NC1CCC(F)(F)CC1)c1cncc(F)c1 (single isomer, unassigned) [Compound 1160 Isomer 2, 1-cyano-N-[2-[(4,4-difluorocyclohexyl)amino]-1-(5-fluoro-3-pyridyl)-2-oxo-ethyl]-5-oxo-N-[4-(pentafluoro-λ6-sulfanyl)phenyl]piperazine-2-carboxamide]
IC50 (HCov OC43; read-out: OC43 IC50 (uM) MEDIAN, median, listed as 1160 Isomer 2): 2 to 10 µM | IC50 [1]: 2000 to 10000 nM | EC50 (229E Mpro; 229E Mpro EC50): 2000 to 10000 nM
